The values below come from US8063042B2, “Heterocyclic compounds” (Hoffmann-La Roche Inc., priority 2007, dated 2011).

Molecules are shown by their SMILES.

In this experiment the target is T1, human chemokine receptor 2 isoform B (Homo sapiens, UniProt P41597).
T1 construct: host or cells: CHOK1-CCR2B-A5 (CHO-K1) cells
T1 sequence (P41597 1-360 isoform P41597-2): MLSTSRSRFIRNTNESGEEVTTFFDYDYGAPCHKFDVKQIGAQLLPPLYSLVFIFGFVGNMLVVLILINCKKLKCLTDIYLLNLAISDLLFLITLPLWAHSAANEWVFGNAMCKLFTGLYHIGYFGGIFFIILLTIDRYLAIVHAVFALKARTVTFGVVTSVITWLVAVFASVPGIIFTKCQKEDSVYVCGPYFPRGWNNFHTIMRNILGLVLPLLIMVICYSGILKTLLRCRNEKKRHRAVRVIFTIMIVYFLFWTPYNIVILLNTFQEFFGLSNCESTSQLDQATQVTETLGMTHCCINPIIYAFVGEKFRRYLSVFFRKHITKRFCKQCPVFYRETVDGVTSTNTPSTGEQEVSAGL
The experiment in a line: Calcium mobilization assay. It counts as cell-based. The following applies: Ca mobilisation assay for CCR2; CHOK1-CCR2B-A5 cells; antagonist activity against 20 nM MCP-1. The procedure: Calcium Mobilization Assay
CHOK1-CCR2B-A5 cells (from Euroscreen) stably overexpressing the human chemokine receptor 2 isoform B were cultured in Nutrient Hams F12 medium supplemented with 5% FBS, 100 U/ml penicillin, 100 μg/ml streptomycin, 400 μg/ml G418 and 5 μg/ml puromycin. For the assay cells were grown overnight in 384-well black clear flat bottom polystyrene plates (Costar) at 37° C. at 5% CO2. After washing with DMEM, 20 mM Hepes, 2.5 mM probenecid, 0.1% BSA (DMEM assay buffer) cells were loaded with 4 μM Fluo-4 in the same DMEM assay buffer for 2 hours at 30° C. Excess dye was removed and cells were washed with DMEM assay buffer. 384-well compound plates were prepared with DMEM assay buffer/0.5% DMSO with or without various concentrations of test compounds. Usually compounds were tested for agonist and antagonist activity.
Test compounds were added to the assay plate and agonist activity was monitored as fluorescence for 80 seconds with a FLIPR (488 nm excitation; 510-570 nm emission; Molecular Devices). After 20-30 min. of incubation at 30° C., 20 nM MCP-1 (R&D; Roche) was added and fluorescence was monitored again for 80 seconds. Increases in intracellular calcium are reported as maximum fluorescence after agonist exposure minus basal fluorescence before exposure. Antagonist activity is indicated as inhibitor concentration required for 50% inhibition of specific calcium increases.

A word on the IC50: it is the concentration that gives 50% inhibition.

`O=C(/C=C/c1ccc(Cl)c(Cl)c1)N1CCN(CCCN2CCC(O)CC2)C(=O)C1` [Example 11, 4-[(E)-3-(3,4-Dichloro-phenyl)-acryloyl]-1-[3-(4-hydroxy-piperidin-1-yl)-propyl]-piperazin-2-one]: the IC50 is 284 nM.
For `O=C(/C=C/c1ccc(Cl)c(Cl)c1)N1CCN(CCCN2CCC(CO)C2)C(=O)C1` (centres unmarked) [Example 14, 4-[(E)-3-(3,4-Dichloro-phenyl)-acryloyl]-1-[3-(3-hydroxymethyl-pyrrolidin-1-yl)-propyl]-piperazin-2-one] the value was 307 nM.
For the compound `CC1C(=O)N(CCCN2CCCC2)CCN1C(=O)/C=C/c1ccc(Cl)c(Cl)c1` (centres unmarked) [Example 15, 4-[(E)-3-(3,4-Dichloro-phenyl)-acryloyl]-3-methyl-1-(3-pyrrolidin-1-yl-propyl)-piperazin-2-one], the IC50 came out at 76.5 nM.
The value for `O=C(/C=C/c1ccc(Cl)c(Cl)c1)N1CCN(CCCN2CCCCC2)S(=O)(=O)C1` [Example 34, (E)-3-(3,4-Dichloro-phenyl)-1-[1,1-dioxo-2-(3-piperidin-1-yl-propyl)-[1,2,5]thiadiazinan-5-yl]-propenone] was 202 nM; that for `CC1C(=O)N(CCCN2CCC3(CC3)[C@H](O)C2)CCN1C(=O)/C=C/c1ccc(Cl)c(F)c1` (stereo partly drawn) [Example 39, 4-[(E)-3-(4-Chloro-3-fluoro-phenyl)-acryloyl]-1-[3-((S)-4-hydroxy-6-aza-spiro[2,5]oct-6-yl)-propyl]-3-methyl-piperazin-2-one] was 13.7 nM.
